Reference: ChEMBL document CHEMBL1124243, “Application of the message-address concept in the design of highly potent and selective non-peptide delta opioid receptor antagonists” (J Med Chem, 1988)
The source made the active and inactive calls. No cut-off for these calls is given here.

Experiments:
[1] = target: Mu-type opioid receptor (Cavia porcellus) (UniProt P97266); conditions: Ileum
Description: Antagonistic activity against Opioid receptor mu 1 receptor using morphine in guinea pig ileum preparation

[2] = target: Kappa-type opioid receptor (Cavia porcellus) (UniProt P41144); assay: Antagonistic activity against Opioid receptor kappa 1 using ethylketazocine in guinea pig ileum preparation; type: functional, tissue-based
[3] = target: Delta-type opioid receptor (Mus musculus) (UniProt P32300); assay: Antagonistic activity against Opioid receptor delta 1 using [D-Ala2,D-Leu5]enkephalin in mouse vas deferens preparation; type: functional
[4] = target: Mu-type opioid receptor (Cavia porcellus) (UniProt P97266); assay: Antagonistic activity against Opioid receptor mu 1 using morphine in guinea pig ileum preparation; type: functional, tissue-based
[5] = target: Kappa-type opioid receptor (Cavia porcellus) (UniProt P41144); assay: Antagonistic activity against Opioid receptor kappa 1 using ethylketazocine in guinea pig ileum preparation; No significant antagonism at 200 nM; type: functional, tissue-based
[6] = target: Mu-type opioid receptor (Cavia porcellus) (UniProt P97266); assay: Antagonistic activity against Opioid receptor mu 1 using morphine in guinea pig ileum preparation; D means no significant antagonism at 200 nM; type: functional, tissue-based

Mu-type opioid receptor (Cavia porcellus), sequence (P97266 whole entry): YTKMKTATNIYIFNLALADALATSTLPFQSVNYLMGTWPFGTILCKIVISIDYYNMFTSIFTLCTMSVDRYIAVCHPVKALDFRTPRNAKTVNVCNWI
Kappa-type opioid receptor (Cavia porcellus), sequence (P41144 whole entry): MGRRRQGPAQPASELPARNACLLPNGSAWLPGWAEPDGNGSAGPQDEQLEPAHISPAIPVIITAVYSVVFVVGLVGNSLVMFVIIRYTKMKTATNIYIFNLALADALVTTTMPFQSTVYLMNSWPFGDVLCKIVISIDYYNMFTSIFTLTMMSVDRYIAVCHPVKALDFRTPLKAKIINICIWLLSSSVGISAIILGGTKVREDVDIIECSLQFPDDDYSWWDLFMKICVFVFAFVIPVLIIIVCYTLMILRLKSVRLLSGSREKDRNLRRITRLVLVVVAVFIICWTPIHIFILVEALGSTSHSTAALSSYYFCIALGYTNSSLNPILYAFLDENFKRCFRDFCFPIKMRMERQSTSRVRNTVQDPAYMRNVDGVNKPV
Delta-type opioid receptor (Mus musculus), sequence (P32300 whole entry): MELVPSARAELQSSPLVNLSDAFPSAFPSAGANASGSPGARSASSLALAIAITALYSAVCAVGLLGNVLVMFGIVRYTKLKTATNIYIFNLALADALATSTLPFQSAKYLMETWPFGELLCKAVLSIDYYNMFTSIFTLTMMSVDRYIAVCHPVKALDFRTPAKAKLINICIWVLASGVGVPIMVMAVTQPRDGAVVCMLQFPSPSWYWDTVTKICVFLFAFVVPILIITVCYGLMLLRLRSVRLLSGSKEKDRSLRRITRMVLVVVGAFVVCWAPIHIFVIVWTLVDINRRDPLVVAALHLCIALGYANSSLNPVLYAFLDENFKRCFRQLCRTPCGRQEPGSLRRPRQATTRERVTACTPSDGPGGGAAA

SMILES | Ke [1] | Ke [2] | Ke [3] | Ke [4] | Ke [5] | Ke [6]
Oc1ccc2c3c1O[C@H]1c4[nH]c5ccccc5c4C[C@@]4(O)[C@@H](C2)N(CC2CC2)CC[C@]314 | 32 nM | 58 nM | 0.21 nM | – | – | –
Oc1ccc2c3c1O[C@H]1c4[nH]c5ccc(F)cc5c4C[C@@]4(O)[C@@H](C2)N(CC2CC2)CC[C@]314 | 61 nM | 46 nM | 2 nM | – | – | –
COc1ccc2[nH]c3c(c2c1)C[C@@]1(O)[C@H]2Cc4ccc(O)c5c4[C@@]1(CCN2CC1CC1)[C@H]3O5 | – | 13 nM | 5.7 nM | 63 nM | – | –
Oc1ccc2c3c1O[C@H]1c4oc5ccccc5c4C[C@@]4(O)[C@@H](C2)N(CC2CC2)CC[C@]314 | – | 48 nM | 1.1 nM | 27 nM | – | –
Cc1ccc2[nH]c3c(c2c1)C[C@@]1(O)[C@H]2Cc4ccc(O)c5c4[C@@]1(CCN2CC1CC1)[C@H]3O5 | – | – | 4.2 nM | – | inactive | inactive
